Test results as given in PubChem BioAssay (NCI).
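Here, GI50 denotes the concentration required for 50% inhibition of growth. At the TGI there is no net growth.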

What was measured:
Test in all cases: DTP human tumour cell line panel, 384-well format
[1] = tested on: SN12C renal
[2] = tested on: SR leukemia
[3] = tested on: U251 glioblastoma
[4] = tested on: SK-MEL-5 melanoma
[5] = tested on: MDA-MB-468 breast
[6] = tested on: RPMI-8226 leukemia
[7] = tested on: UACC-62 melanoma
[8] = tested on: HL-60(TB) leukemia
[9] = tested on: SNB-19 CNS
[10] = tested on: SK-MEL-2 melanoma
[11] = tested on: HOP-62 NSCLC
[12] = tested on: SF-268 CNS
[13] = tested on: EKVX NSCLC
[14] = tested on: NCI/ADR-RES ovarian
[15] = tested on: SF-295 CNS
[16] = tested on: SK-MEL-28 melanoma
[17] = tested on: SF-539 CNS
[18] = tested on: A549 NSCLC
[19] = tested on: ACHN renal
[20] = tested on: M14 melanoma
[21] = tested on: KM12 colon
[22] = tested on: OVCAR-3 ovarian
[23] = tested on: NCI-H322M lung
[24] = tested on: 786-0 renal
[25] = tested on: NCI-H23 lung
[26] = tested on: RXF 393 renal
[27] = tested on: HCT-15 colon
[28] = tested on: K-562 leukemia
[29] = tested on: MALME-3M melanoma
[30] = tested on: UACC-257 melanoma
[31] = tested on: NCI-H226 lung
[32] = tested on: HCT-116 colon
[33] = tested on: HCC-2998 colon
[34] = tested on: HT29 colon
[35] = tested on: MDA-MB-231 breast
[36] = tested on: TK-10 renal
[37] = tested on: PC-3 prostate
[38] = tested on: OVCAR-5 ovarian
[39] = tested on: T-47D breast
[40] = tested on: OVCAR-8 ovarian
[41] = tested on: MOLT-4 leukemia
[42] = tested on: MDA-MB-435 melanoma
[43] = tested on: HOP-92 NSCLC
[44] = tested on: HS 578T breast
[45] = tested on: NCI-H460 NSCLC
[46] = tested on: CAKI-1 renal
[47] = tested on: LOX IMVI melanoma

With `CNC(=O)c1cc(Oc2ccc(NC(=O)Nc3ccc(Cl)c(C(F)(F)F)c3)cc2)ccn1` the GI50 [1] was 2470 nM, the TGI [1] was 5660 nM and the GI50 [2] was 2100 nM. For the same compound, the TGI [2] was 3550 nM, the GI50 [3] was 2000 nM and the TGI [3] was 3740 nM. It also gave a GI50 [4] of 842 nM, a TGI [4] of 2440 nM and a GI50 [5] of 1500 nM. For the same compound, the TGI [5] was 3350 nM, the GI50 [6] was 1480 nM and the TGI [6] was 2820 nM. It also gave a GI50 [7] of 2080 nM, a TGI [7] of 4060 nM and a GI50 [8] of 892 nM. The TGI [8] was 2040 nM, the GI50 [9] was 3330 nM and the TGI [9] was 8100 nM. For the same compound, the GI50 [10] was 2050 nM, the TGI [10] was 3490 nM and the GI50 [11] was 1840 nM. It also gave a TGI [11] of 3420 nM, a GI50 [12] of 2220 nM and a TGI [12] of 4710 nM. It also gave a GI50 [13] of 2900 nM, a TGI [13] of 6800 nM and a GI50 [14] of 2120 nM. The TGI [14] was 4390 nM, the GI50 [15] was 2070 nM and the TGI [15] was 4200 nM. It also gave a GI50 [16] of 2150 nM, a TGI [16] of 4340 nM and a GI50 [17] of 1690 nM. The TGI [17] was 3540 nM, the GI50 [18] was 2950 nM and the TGI [18] was 8890 nM. It also gave a GI50 [19] of 2710 nM, a TGI [19] of 6370 nM and a GI50 [20] of 2480 nM. The TGI [20] was 5220 nM, the GI50 [21] was 413 nM and the TGI [21] was 2320 nM. The GI50 [22] was 2280 nM, the TGI [22] was 4380 nM and the GI50 [23] was 2610 nM. For the same compound, the TGI [23] was 5160 nM, the GI50 [24] was 1890 nM and the TGI [24] was 3700 nM. It also gave a GI50 [25] of 1560 nM, a TGI [25] of 3650 nM and a GI50 [26] of 2200 nM. The TGI [26] was 4430 nM, the GI50 [27] was 1920 nM and the TGI [27] was 4030 nM. The GI50 [28] was 1260 nM, the TGI [28] was 2550 nM and the GI50 [29] was 2010 nM. For the same compound, the TGI [29] was 4120 nM, the GI50 [30] was 2320 nM and the TGI [30] was 4620 nM. The GI50 [31] was 1460 nM, the TGI [31] was 3280 nM and the GI50 [32] was 1650 nM. It also gave a TGI [32] of 4140 nM, a GI50 [33] of 2130 nM and a TGI [33] of 3860 nM. The GI50 [34] was 2350 nM, the TGI [34] was 5960 nM and the GI50 [35] was 1820 nM. It also gave a TGI [35] of 3470 nM, a GI50 [36] of 5090 nM and a TGI [36] of 17700 nM. For the same compound, the GI50 [37] was 2710 nM, the TGI [37] was 5910 nM and the GI50 [38] was 2690 nM. The TGI [38] was 6590 nM, the GI50 [39] was 1940 nM and the TGI [39] was 5950 nM. For the same compound, the GI50 [40] was 2090 nM, the TGI [40] was 4240 nM and the GI50 [41] was 1660 nM. The TGI [41] was 3060 nM, the GI50 [42] was 2570 nM and the TGI [42] was 4980 nM. The GI50 [43] was 3000 nM, the TGI [43] was 7600 nM and the GI50 [44] was 1780 nM. The TGI [44] was 3690 nM, the GI50 [45] was 2100 nM and the TGI [45] was 4250 nM. It also gave a GI50 [46] of 2190 nM, a TGI [46] of 4740 nM and a GI50 [47] of 2190 nM. It also gave a TGI [47] of 4560 nM.
